In US6214841A, “Antithrombotic compound” (Eli Lilly and Company, priority 1999, dated 2001):

What was measured:
human thrombin = assay: Inhibition of thrombin amidase activity, chromogenic substrate (Kass); assay type: biochemical; conditions: average of 3 assays; read-out: Kass, inhibitor of thrombin (converted)
Experimental: For example, thrombin hydrolyzes N-benzoyl-L-phenylalanyl-L-valyl-L-arginyl-p-nitroanilide, N-benzoyl-L-Phe-L-Val-L-Arg-p-nitroanilide.
The assay is carried out by mixing 50 μL buffer (0.03M Tris, 0.15M NaCl, pH 7.4) with 25 μL of human thrombin solution (purified human thrombin, Enzyme Research Laboratories, South Bend, Indiana, at 8 NIH units/mL) and 25 μL of test compound in a solvent (50% aqueous methanol (v:v)). Then 150 μL of an aqueous solution of the chromogenic substate (at 0.25 mg/mL) are added and the rates of hydrolysis of the substrate are measured by monitoring the reactions at 405 nm for the release of p-nitroaniline. Standard curves are constructed by plotting free thrombin concentration against hydrolysis rate. The hydrolysis rates observed with test compounds are then converted to "free thrombin" values in the respective assays by use of the standard curves. The bound thrombin (bound to test compound) is calculated by subtracting the amount of free thrombin observed in each assay from the known initial amount of thrombin used in the assay. The amount of free inhibitor in each assay is calculated by subtracting the number of moles of bound thrombin from the number of moles of added inhibitor (test compound). […]
Kass is calculated for a range of concentrations of test compounds and the mean value reported in units of liter per mole.

rabbit AV shunt model = assay: Arterio-venous (AV) shunt model in the rabbit; assay type: in vivo; conditions: i.v. infusion
Description: Arterio-Venous (AV) Shunt Model in the Rabbit
Efficacy and potency of a compound are studied in a model of thrombosis in the anesthetized rabbit in which blood is shunted from the carotid artery through tubing to the left jugular vein. The shunt houses a thread upon which thrombotic material is deposited and is quantified in the presence and absence of a test compound. Specifically, the left jugular vein and right carotid artery are cannulated (PE 200 tubing, 22 cm). The tip of the arterial tubing is advanced approximately 1 cm and the tip of the venous tubing is advanced approximately 1 cm. The arterial and venous shunt segments are friction fitted into a center section of larger tubing (PE 260, 6 cm) with 4 strands of cotton thread (5.5 cm each), knotted together with a single knot at the end, in the lumen. Blood is circulated through the shunt for 15 min. The arterial and venous segments are clamped, the center section is detached, held vertically and the thread is carefully removed and weighed. The weight of a wet thread (38 mg, average of 10-4-stranded identical lengths) is subtracted from the total weight of the thread and thrombus. A drug is infused through a second catheter in the right jugular vein (2 cm inside vessel) starting 15 min before and throughout the 15 min period of blood circulation through the shunt. […]

factor Xa = assay: Inhibition of factor Xa amidase activity, chromogenic substrate (Kass); assay type: biochemical, human; conditions: average of 3 assays; read-out: Kass, inhibitor of factor Xa (converted)

- Kd (human thrombin): 2.84 nM
- Kd (factor Xa): 3.32 nM
SMILES: N=C(N)NCCCC(NC(=O)[C@@H]1CCCN1C(=O)[C@@H]1NCC[C@H]2CCCC[C@H]21)C(=O)c1nc2ccccc2s1 (mixture of isomers) [DL-Arg-Ia, (1R,4aR,8aR)-Perhydroisoquinolin-1-ylcarbonyl-N-[(1RS)-4-[(aminoiminomethyl)amino]-1-(benzothiazol-2-ylcarbonyl)-butyl]-L-prolinamide. 1.5 H2 SO4]
- ED50% (infusion dose to reduce thrombus weight by 50%) (rabbit AV shunt model): 0.008 mg/kg/h
